Values quoted from earlier work as cited in patent publication US20110008426A1, “MODIFIED RELEASE PHARMACEUTICAL COMPOSITIONS COMPRISING MYCOPHENOLATE AND PROCESSES THEREOF” (priority 2008, published 2011).
Where “and” joins values, the source holds several entries; their conditions need not be identical. Identical values can stand only once. Like-named read-outs stand apart in the source and are kept apart here.

How the values were obtained:
[1] = not given; remark: listed apart in the source
[2] = 423 de novo kidney allograft recipients
[3] = MMF 1 g b.i.d; EC-MPS 720 mg b.i.d
[4] = not given; remark: listed apart in the source
[5] = transplant patients, acute rejection
[6] = controlled de novo and maintenance renal studies, patients

Compound	adverse effects: blood and lymphatic system disorders (www.rxlist.com) [%]	adverse effects: constipation (www.rxlist.com) [%]	adverse effects: diarrhea (www.rxlist.com) [%]	adverse effects: nausea (www.rxlist.com) [%]	adverse effects: urinary tract infections (www.rxlist.com) [%]	adverse effects: vomiting (www.rxlist.com) [%]	Adverse Events: Anemia [1, 6] [%]	Adverse Events: Constipation [1, 6] [%]	Adverse Events: Diarrhoea [1, 6] [%]	Adverse Events: Dyspepsia [1, 6] [%]	Adverse Events: Insomnia [1, 6] [%]	Adverse Events: Leukopenia [1, 6] [%]	Adverse Events: Nausea [1, 6] [%]	Adverse Events: Urinary Tract Infection [1, 6] [%]	Adverse Events: Vomiting [1, 6] [%]	incidence of GI adverse events [2] [%]	Cmax of MPA [3] [ng/mL]	other results
COc1c(C)c2c(c(O)c1C/C=C(\C)CCC(=O)OCCN1CCOCC1)C(=O)OC2 [MMF, mycophenolate mofetil]	42.4	39.5	24.8	27.1	33.3	20	21.6	38.0	24.8	22.5	23.5	19.2	29.1	29.1	20	77.1	21300	adverse effects: CMV infection (www.rxlist.com): 18.1%; Adverse Events: CMV infections [1, 6]: 20.2%
COc1c(C)c2c(c(O)c1C/C=C(\C)CCC(=O)O)C(=O)OC2 [MPS, mycophenolate sodium]	41.8	38	23.5	29	29.1	23	21.9	39.5	23.5	19	23.8	20.5	27.1	33.3	23	79.8	18930	solubility of the drug ([4]; pH above 6.0): high solubility; solubility of the drug ([4]; pH below 6.0): poor solubility; adverse effects: CMV infection (in vivo): 20.2%; Adverse Events: CMV infections ([1]; in vivo): 18.1%
COc1c(C)c2c(c(O)c1C/C=C(\C)CCC(=O)O)C(=O)OC2 [mycophenolic acid, Mycophenolic acid]	–	–	–	–	–	–	–	–	–	–	–	–	–	–	–	–	–	mycophenolic acid AUC expected to yield 50% of maximal achievable efficacy [5]: 15 µg·h/mL; mycophenolic acid AUC that would yield 90% efficacy [5]: 25 µg·h/mL and 40 µg·h/mL
